According to patent US7179908B2, “Water-and organic-soluble cucurbituril derivatives, their preparation methods, their separation methods and uses” (Pohang University of Science and Technology Foundation, priority 2001, dated 2007):
Values after ≈ are worked out from the molar mass of the structure shown.

Experiments:
[1] = Solubilities of the cucurbituril derivatives in water, methanol, dimethylsulfoxide and acetonitrile; type: physicochemical
[2] = Binding constant measured using a microcalorimeter (VP-ITC); conditions: 0.05 M tris buffered solution pH 7.2
Procedure: A 5.5 mM CB*[5] solution and 110 mM-KCl solution were prepared with 0.05 M tris buffered solution having a pH of 7.2. Then, the binding constant of CB*[5] was measured using a microcalorimeter (VP-ITC, manufactured by MicroCal). As a result, CB*[5] forms a 1:2 complex with potassium ions with a primary binding constant of 2.8×10^4 M^−1 and a secondary binding constant of 1.5×10^2 M^−1. CB*[5] can selectively bind with alkali metal ions, as well as with ammonium ions. The result confirms that cucurbituril derivatives can be used as ion sensors.

With O=C1N2CN3C(=O)N4CN5C(=O)N6CN7C(=O)N8CN9C(=O)N%10CN1C1%11CCCCC21N1CN2C(=O)N(CN%12C(=O)N(CN%13C(=O)N(CN%14C(=O)N(CN%11C1=O)C%101CCCCC9%141)C81CCCCC7%131)C61CCCCC5%121)C41CCCCC321 (stereo not shown) [CB*[5]] the Solubility ([1]; Acetonitrile) was 0.00067 M (≈ 0.738 mg/mL), the Solubility ([1]; Dimethylsulfoxide) was 0.018 M (≈ 19.8 mg/mL) and the Solubility ([1]; Methanol) was 0.031 M (≈ 34.1 mg/mL). For the same compound, the Solubility ([1]; Water) was 0.26 M (≈ 286 mg/mL), the “complex stoichiometry with potassium ions” value [2] was 1:2 complex and the primary binding constant ([2]; potassium ions (KCl)) was 28000 M⁻¹. It also gave a secondary binding constant ([2]; potassium ions (KCl)) of 150 M⁻¹.
